No end group written: not given here.
Experiments:
[1] = test system: human granulocytic leukemia cells K562; test: Growth of human leukemia tumor in mice; conditions: K562 subcutaneous in mice, tumor weight vs control, injection every other day 7 times, after two weeks; PTD-P15 1 mg, Glivec 10 mcg
Text: After 5×10^6human granulocytic leukemia cells K562 injected into the subcutaneous tissue of mice, the mice were randomly divided into five groups. […] After two weeks, the mice were killed, from which the tumors grown in the subcutaneous tissue of the mice were taken out and weighed.

[2] = test system: MCF-7 (breast cancer cell line); test: Cell cycle distribution by FCM of GFP-positive transfected cells; type: cell-based; conditions: Cells MCF7, GFP-positive cells sorted two days after transfection
Experimental: (§1) The impact of P15 on cell proliferation is tested with NIH/3T3 (fibroblast and eptithlial cells, purchased from American ATCC, Cat No. CRL-1658) and MCF-7 (breast cancer cell line, purchased from American ATCC, Cat No. HTB-22).
(§2) Plasmid used for experiment: pEGFP-P15 (to express fused protein P15-GFP); control plasmid: pEGFP-N1
(§3) After the plasmid for transfection and the lipofectamine reagent (purchased from American Invitrogen, Cat No. 11668) were mixed, the mixture stayed for 15 minutes at room temperature. Then the mixture was first introduced into cells (with a cell density of about 50%) cultured in DMEM without serum for 5 hours of cultivation at 37° C. and next into SBF with a mass concentration of 10% for 48 hours of cultivation. […] In addition, by the use of FCM, it was easy to separate and purify the positive fluorescent protein cells. The symbolic indicators to test cell proliferation such as cell cycle were used to study and testify the impact of P15 on cell proliferation, while in these experiments, only the cells that express fluorescent proteins were used as control group.
(§4) First, we used the above mentioned plasmid to transfect 3T3 and MCF7, and used FCM to sort the positive GFP cells transfected with DNA and analyzed the cycle distribution of these cells two days later.

[3] = test system: NIH/3T3; test: as above; type: cell-based
Experimental: as §1, §2, §3, §4

[4] = test system: Cells 3T3; test: BrdU penetration in DNA (DNA synthesis) in transfected cells; type: cell-based
Experimental: (§5) DNA synthesis is the symbol of cell proliferation. In the next experiment, we tested the impact of P15 on DNA synthesis. Within the 15 hours after 3T3 and MCF7 transfecting pEGFP-N 1 and expressing P15-GFP plasmid for two days, the BrdU labeled […] that can penetrate in the newly synthesized DNA chain were added in cell culture fluid. The positive GFP cells in plasmid were detected and transfected with immunofluorescence technique, and the positive rate of BrdU penetration in DNA (this reflects the rate of DNA synthesis) was ascertained.

[5] = test system: Cells MCF7; test: as above; type: cell-based
Experimental: as §5

[6] = Cells 3T3, GFP-positive cells sorted two days after transfection

**Q.** How did the Inhibition ratio [1] turn out when Cc1ccc(NC(=O)c2ccc(CN3CCN(C)CC3)cc2)cc1Nc1nccc(-c2cccnc2)n1 [Glivec] was run?
**A.** The Inhibition ratio was 48%.

**Q.** Which results are given for “P15-GFP: fused protein consisted of P15 and GFP, P15 connected to the end N of GFP, expressed from plasmid pEGFP-P15 (MPYSTELIFYIEMDP-{GFP})”?
**A.** G0/G1 [2]: 85.6%; G2/M [2]: 3.3%; S [2]: 11.1%; G0/G1 [3, 6]: 52.1%; G2/M [3, 6]: 25.7%; S [3, 6]: 22.1%; Positive BrdU cells ([4]; Cells 3T3, BrdU 15 hours, two days after transfection): 12.5%; Inhibition ratio ([4]; Cells 3T3, DNA synthesis, relative to GFP): 76.8%; Positive BrdU cells ([5]; Cells MCF7, BrdU 15 hours, two days after transfection): 5.2%; Inhibition ratio ([5]; Cells MCF7, DNA synthesis, relative to GFP): 83.4%

**Q.** “asparaginic acid-arginine-arginine-asparaginic acid-leucine-tyrosine-asparaginic acid-asparaginic acid-asparaginic acid-asparaginic acid-lysine-asparaginic acid-arginine-methionine-alanine-glycine-threonine-methionine [Control polypeptide]” was tested. Which Inhibition ratio [1] did it give?
**A.** The Inhibition ratio was −2%.

**Q.** For “methionine-proline-tyrosine-serine-threonine-glutamic acid-leucine-isoleucine-phenylalanine-tyrosine-isoleucine-glutamic acid-methionine-asparaginic acid-proline [P15]”, which “impact on cell apoptosis” value ([3]; expression of P15 in 3T3 and MCF7) is on record?
**A.** Its value is “no obvious impact on cell apoptosis”.
